This note sets out measurements from publication PMC2801607 (Bioorganic & medicinal chemistry letters, 2009).

Assay [1] has as its target T1, CD45 (Homo sapiens, UniProt P08575).
T1 sequence (P08575 26-1306): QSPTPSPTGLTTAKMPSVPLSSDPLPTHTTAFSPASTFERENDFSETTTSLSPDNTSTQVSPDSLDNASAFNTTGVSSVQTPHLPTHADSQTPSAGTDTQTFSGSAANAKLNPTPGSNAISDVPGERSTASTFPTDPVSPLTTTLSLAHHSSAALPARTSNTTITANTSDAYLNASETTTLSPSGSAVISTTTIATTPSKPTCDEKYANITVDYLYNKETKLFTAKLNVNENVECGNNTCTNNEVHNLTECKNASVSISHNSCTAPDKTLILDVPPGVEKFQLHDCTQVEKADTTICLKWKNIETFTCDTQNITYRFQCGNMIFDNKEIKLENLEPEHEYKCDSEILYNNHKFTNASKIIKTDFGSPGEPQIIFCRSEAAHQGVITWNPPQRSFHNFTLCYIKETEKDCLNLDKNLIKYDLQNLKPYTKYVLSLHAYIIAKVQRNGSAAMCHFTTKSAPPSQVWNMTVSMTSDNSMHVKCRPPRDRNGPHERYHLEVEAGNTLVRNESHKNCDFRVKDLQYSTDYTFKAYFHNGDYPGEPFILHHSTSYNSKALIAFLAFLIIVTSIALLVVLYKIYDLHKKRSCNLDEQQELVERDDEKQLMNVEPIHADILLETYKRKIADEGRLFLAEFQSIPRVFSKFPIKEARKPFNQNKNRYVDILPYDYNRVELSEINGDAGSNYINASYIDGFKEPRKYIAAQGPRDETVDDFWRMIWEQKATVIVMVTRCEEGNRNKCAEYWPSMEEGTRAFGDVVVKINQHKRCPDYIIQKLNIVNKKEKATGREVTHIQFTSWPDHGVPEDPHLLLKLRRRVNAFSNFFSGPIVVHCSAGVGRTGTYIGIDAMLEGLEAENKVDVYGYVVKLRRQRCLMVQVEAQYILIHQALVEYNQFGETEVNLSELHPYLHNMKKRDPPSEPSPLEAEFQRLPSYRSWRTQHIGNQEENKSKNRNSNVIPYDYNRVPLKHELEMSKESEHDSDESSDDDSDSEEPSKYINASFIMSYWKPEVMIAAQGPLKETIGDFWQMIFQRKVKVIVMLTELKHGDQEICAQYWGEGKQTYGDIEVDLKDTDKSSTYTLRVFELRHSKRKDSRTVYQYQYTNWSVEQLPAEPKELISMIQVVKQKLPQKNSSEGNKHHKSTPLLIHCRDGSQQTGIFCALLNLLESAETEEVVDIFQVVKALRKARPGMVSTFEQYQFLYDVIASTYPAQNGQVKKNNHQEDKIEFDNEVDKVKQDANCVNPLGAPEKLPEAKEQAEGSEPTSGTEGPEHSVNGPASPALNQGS
Kind of assay: Selectivity panel: CD45 inhibition. It counts as biochemical.

In assay [2] the target is T2, Tc-Ptp (Homo sapiens, UniProt P17706).
T2 sequence (P17706 1-415): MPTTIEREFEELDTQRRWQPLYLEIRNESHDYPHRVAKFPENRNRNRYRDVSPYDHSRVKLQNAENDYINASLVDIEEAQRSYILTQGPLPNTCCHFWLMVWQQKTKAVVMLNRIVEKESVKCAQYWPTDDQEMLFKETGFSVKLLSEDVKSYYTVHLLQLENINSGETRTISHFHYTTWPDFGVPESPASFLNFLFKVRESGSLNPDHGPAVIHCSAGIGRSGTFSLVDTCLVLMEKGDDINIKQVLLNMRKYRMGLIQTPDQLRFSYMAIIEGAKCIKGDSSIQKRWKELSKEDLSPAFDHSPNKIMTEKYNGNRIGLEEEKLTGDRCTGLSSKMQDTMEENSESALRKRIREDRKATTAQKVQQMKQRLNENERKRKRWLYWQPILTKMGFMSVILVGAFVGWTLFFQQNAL
Kind of assay: Selectivity panel: Tc-Ptp inhibition. The class given is biochemical.

Assay [3] relates to panel of human tyrosine and dual-specificity phosphatases. It counts as biochemical.
In assay [4] the target is T3, PTP1B (Homo sapiens, UniProt P18031).
T3 sequence (P18031 1-435): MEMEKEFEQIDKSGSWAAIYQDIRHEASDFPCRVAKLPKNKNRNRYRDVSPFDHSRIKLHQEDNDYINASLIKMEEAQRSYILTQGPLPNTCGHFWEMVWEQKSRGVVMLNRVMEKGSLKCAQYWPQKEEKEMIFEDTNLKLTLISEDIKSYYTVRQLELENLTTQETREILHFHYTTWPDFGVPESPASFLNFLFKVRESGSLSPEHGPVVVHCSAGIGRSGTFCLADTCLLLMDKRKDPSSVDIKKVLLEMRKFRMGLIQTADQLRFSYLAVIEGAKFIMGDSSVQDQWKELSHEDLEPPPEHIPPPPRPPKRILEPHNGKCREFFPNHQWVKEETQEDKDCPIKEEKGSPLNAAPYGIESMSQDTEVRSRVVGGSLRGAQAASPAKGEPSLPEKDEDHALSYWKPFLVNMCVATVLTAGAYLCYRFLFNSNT
Kind of assay: Selectivity panel: PTP1B inhibition. It counts as biochemical.

The target of assay [5] is LAR (Homo sapiens, UniProt P10586). Kind of assay: Selectivity panel: LAR inhibition. It counts as biochemical.
The target of assay [6] is VHR (Homo sapiens, UniProt P51452). Kind of assay: Selectivity panel: VHR inhibition. It counts as biochemical.
Assay [7] deals with Mycobacterium tuberculosis phosphatase PtpA (Mycobacterium tuberculosis, UniProt P9WIA1). Kind of assay: PtpA continuous inhibition assay with pNPP substrate. The class given is biochemical. The conditions noted are these: PtpA dose-response curve, variable slope (GraphPad Prism).
In assay [8] the target is Mtb PtpB (Mycobacterium tuberculosis, UniProt I6WXK4). Kind of assay: biochemical. The class given is biochemical.
Assay [9] relates to Mtb PtpB. Kind of assay: biochemical. The class given is biochemical, Mycobacterium tuberculosis.

Read-outs that look alike come from different tables or passages of the source. A value given as a limit tells only on which side of the number the result lay.

Sequence of Mycobacterium tuberculosis phosphatase PtpA (P9WIA1 whole entry): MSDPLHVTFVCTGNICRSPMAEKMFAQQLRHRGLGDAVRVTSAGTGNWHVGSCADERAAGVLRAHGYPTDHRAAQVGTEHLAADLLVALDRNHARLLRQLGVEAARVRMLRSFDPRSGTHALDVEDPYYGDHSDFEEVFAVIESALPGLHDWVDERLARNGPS
Sequence of Mtb PtpB (Mycobacterium tuberculosis, UniProt I6WXK4) (I6WXK4 whole entry, looked up): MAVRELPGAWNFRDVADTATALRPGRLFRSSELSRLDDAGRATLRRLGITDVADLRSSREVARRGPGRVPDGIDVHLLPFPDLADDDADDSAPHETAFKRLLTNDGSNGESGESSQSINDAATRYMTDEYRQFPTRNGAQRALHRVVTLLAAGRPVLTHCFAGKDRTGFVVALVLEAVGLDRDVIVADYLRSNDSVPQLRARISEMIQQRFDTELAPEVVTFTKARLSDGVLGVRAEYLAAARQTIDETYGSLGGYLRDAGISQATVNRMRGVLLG
Sequence of VHR (P51452 whole entry): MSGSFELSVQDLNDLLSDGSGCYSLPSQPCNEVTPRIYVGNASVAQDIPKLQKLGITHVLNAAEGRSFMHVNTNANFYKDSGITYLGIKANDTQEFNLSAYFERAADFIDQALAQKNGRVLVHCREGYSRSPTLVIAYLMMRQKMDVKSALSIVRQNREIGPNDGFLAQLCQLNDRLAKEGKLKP
Sequence of LAR (P10586 30-1907): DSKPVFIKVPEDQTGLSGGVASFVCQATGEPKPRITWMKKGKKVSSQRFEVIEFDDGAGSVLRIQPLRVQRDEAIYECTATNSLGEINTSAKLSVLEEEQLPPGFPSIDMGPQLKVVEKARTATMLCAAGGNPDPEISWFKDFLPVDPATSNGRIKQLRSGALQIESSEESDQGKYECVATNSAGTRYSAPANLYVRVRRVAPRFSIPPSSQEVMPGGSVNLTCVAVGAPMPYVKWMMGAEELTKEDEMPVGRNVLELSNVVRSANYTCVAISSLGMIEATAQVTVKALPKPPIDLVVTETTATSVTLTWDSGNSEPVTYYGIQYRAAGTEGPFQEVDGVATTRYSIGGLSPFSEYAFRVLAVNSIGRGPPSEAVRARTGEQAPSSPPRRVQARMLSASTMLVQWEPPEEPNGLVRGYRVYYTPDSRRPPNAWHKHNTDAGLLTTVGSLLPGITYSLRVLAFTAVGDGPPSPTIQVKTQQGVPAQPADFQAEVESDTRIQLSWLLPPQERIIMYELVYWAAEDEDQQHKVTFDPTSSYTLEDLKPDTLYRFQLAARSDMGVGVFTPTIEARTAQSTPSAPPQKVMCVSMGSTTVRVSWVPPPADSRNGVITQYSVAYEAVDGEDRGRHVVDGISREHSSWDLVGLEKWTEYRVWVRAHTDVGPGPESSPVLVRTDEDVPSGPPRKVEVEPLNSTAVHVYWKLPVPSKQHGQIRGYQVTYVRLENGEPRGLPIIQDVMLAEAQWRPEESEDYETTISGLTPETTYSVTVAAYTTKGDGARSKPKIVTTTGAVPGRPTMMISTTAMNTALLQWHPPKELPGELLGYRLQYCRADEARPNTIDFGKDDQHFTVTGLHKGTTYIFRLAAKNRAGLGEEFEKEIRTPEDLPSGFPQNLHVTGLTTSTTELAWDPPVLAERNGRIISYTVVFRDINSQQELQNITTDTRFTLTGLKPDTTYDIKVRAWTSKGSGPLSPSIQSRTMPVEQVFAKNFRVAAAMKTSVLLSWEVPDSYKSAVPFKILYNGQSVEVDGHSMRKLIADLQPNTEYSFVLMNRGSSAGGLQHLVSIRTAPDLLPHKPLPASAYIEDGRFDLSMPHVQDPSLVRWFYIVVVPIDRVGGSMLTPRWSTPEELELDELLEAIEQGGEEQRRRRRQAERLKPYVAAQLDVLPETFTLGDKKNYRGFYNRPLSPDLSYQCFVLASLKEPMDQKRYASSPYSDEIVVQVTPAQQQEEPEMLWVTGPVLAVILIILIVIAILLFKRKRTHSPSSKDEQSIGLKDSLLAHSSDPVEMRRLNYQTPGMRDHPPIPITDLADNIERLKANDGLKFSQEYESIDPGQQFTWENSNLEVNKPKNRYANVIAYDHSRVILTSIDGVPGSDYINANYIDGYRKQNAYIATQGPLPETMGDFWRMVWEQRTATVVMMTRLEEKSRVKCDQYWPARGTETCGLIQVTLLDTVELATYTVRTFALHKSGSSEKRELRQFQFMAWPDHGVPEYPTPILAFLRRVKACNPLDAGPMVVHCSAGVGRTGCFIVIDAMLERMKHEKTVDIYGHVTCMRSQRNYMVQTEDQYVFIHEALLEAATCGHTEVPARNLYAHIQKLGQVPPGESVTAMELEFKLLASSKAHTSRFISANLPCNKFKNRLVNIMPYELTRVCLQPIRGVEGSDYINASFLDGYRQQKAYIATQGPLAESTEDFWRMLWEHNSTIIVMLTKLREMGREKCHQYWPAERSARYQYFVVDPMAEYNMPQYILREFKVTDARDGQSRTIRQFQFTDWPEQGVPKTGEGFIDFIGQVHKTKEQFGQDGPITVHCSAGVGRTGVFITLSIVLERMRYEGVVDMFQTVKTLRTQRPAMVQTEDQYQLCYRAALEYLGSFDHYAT

On to `O=C(Nc1cc(C(F)(F)F)c(Br)c(C(F)(F)F)c1)c1ccc(C(F)(F)P(=O)(O)O)cc1` [Compound 38], for which the Selectivity in [1], in assay [2], in assay [4], in assay [5], in assay [6] and in [9] was more than 70 in each case. Besides, the “Selectivity for PtpA versus panel of phosphatases” value in [3] is listed as more than 70 fold. The same compound returned a Hill coefficient h in [7] of −1.0 ± 0.1. For the same compound, the Ki in [8] was more than 100 µM; in assay [8] (PtpB) it was “did not inhibit”.
With `O=C(Nc1ccc(C(F)(F)P(=O)(O)O)cc1)Nc1cc(C(F)(F)F)cc(C(F)(F)F)c1` [Compound 43], in [7], the Hill coefficient h is −1.1 ± 0.2.
